Results from US11365199B2, “Pyrazole compounds as modulators of FSHR and uses thereof” (Merck Patent GmbH, priority 2013, dated 2022).

Molecular target: T1, FSHR (Homo sapiens, UniProt P23945)
T1 construct: expressed in transfected cells; host or cells: CHO (Cho-FSHR-LUC-1-1-43)
T1 sequence (P23945 18-695): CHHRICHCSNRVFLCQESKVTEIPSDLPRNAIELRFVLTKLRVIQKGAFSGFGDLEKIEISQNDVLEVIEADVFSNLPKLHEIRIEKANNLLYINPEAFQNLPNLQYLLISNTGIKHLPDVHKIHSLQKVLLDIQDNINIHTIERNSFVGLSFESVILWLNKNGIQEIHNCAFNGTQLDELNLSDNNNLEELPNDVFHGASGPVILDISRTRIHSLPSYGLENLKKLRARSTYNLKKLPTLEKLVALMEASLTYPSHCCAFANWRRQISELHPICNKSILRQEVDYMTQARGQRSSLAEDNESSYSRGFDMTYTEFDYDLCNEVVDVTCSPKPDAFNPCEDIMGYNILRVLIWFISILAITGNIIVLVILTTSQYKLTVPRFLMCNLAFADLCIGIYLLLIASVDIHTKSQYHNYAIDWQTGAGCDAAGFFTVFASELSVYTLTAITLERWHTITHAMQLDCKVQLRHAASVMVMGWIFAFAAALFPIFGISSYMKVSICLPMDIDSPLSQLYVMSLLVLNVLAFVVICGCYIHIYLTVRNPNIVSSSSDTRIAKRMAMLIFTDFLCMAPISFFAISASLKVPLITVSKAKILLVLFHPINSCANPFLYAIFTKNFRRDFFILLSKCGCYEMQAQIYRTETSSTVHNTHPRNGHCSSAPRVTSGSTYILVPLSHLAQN
Assay: EC50 of cyclic AMP production in CHO FSHR cells + EC20 FSH (Assay A)
Format: cell-based
Settings: CHO FSHR cells + EC20 FSH, cAMP HTRF; read-out: Assay A: EC50 of cyclic AMP production
Procedure, shortened: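 cAMP HTRF read-out (665 nm/620 nm ratio) after 1 h at 37° C of Cho-FSHR-LUC cells treated with serially diluted test compound plus EC20 FSH ([…]) and IBMX (final 200 μM). Responses given as percent of maximal FSH-standard effect.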

Compound | EC50
COc1cc2c(cc1C=C(C)C)-c1c(c(C(=O)N3CCCC(C(=O)N(C)C)CC3)nn1-c1ccsc1)CO2 (stereo not drawn) [Compound 41, 1-[7-Methoxy-8-(2-methyl-propenyl)-1-thiophen-3-yl-1,4-dihydro-chromeno[4,3-c]pyrazole-3-carbonyl]-azepane-4-carboxylic Acid Dimethylamide] | 100 to 1000 nM
COc1cc2c(cc1CC(C)C)-c1c(c(C(=O)N3CCOCC3(C)C)nn1-c1ccsc1)CO2 [Compound 77, (3,3-Dimethyl-morpholin-4-yl)-(8-isobutyl-7-methoxy-1-thiophen-3-yl-1,4-dihydro-chromeno[4,3-c]pyrazol-3-yl)-methanone] | < 100 nM
COc1cc2c(cc1-c1ccn(C)n1)-c1c(c(C(=O)N3CCOCC3C(F)(F)F)nn1-c1ccsc1)CO2 (stereo not drawn) [Compound 144, [7-Methoxy-8-(1-methyl-1H-pyrazol-3-yl)-1-thiophen-3-yl-1,4-dihydro-chromeno[4,3-c]pyrazol-3-yl]-(3-trifluoromethyl-morpholin-4-yl)-methanone] | < 100 nM
[2H]C([2H])([2H])N(C(=O)c1nn(-c2ccsc2)c2c1COc1cc(OC)c(-c3ccnn3C)cc1-2)C1(C)COC1 [Compound 118] | < 100 nM
[2H]C([2H])([2H])O[C@@H]1CC[C@H](N(C(=O)c2nn(-c3ccsc3)c3c2COc2cc(OC)c(-c4ccn(C)n4)cc2-3)C([2H])([2H])[2H])C1 [Compound 177] | 1000 to 5000 nM
COc1cc2c(cc1-c1ccn(C)n1)-c1c(c(C(=O)N(C)CC3(C)COC3)nn1-c1ccsc1)CO2 [Compound 102, 7-Methoxy-8-(1-methyl-1H-pyrazol-3-yl)-1-thiophen-3-yl-1,4-dihydro-chromeno[4,3-c]pyrazole-3-carboxylic acid methyl-(3-methyl-oxetan-3-ylmethyl)-amide] | 100 to 1000 nM
COc1cc2c(cc1C=C(C)C)-c1c(c(C(=O)N3CCCC(NC(=O)C4CCC4)CC3)nn1-c1ccsc1)CO2 (stereo not drawn) [Compound 37, Cyclobutanecarboxylic acid {1-[7-methoxy-8-(2-methyl-propenyl)-1-thiophen-3-yl-1,4-dihydro-chromeno[4,3-c]pyrazole-3-carbonyl]-azepan-4-yl}-amide] | 1000 to 5000 nM
CCOCn1cc(-c2cc3c(cc2OC)OCc2c(C(=O)N(C)C(C)(C)C)nn(-c4ccsc4)c2-3)nn1 [Compound 152, 8-(1-Ethoxymethyl-1H-[1,2,3]triazol-4-yl)-7-methoxy-1-thiophen-3-yl-1,4-dihydro-chromeno[4,3-c]pyrazole-3-carboxylic acid tert-butyl-methyl-amide] | < 100 nM
COc1cc2c(cc1-c1ccn(C)n1)-c1c(c(C(=O)O[C@H]3CC[C@H](N)C3)nn1-c1ccsc1)CO2 [Compound 180, 7-Methoxy-8-(1-methyl-1H-pyrazol-3-yl)-1-thiophen-3-yl-1,4-dihydro-chromeno[4,3-c]pyrazole-3-carboxylic Acid (1S,3S)-3-amino-cyclopentyl Ester] | < 100 nM
COc1cc2c(cc1C=C(C)C)-c1c(c(C(=O)N(C)CCCN3CCOC3=O)nn1-c1ccsc1)CO2 [Compound 33] | 100 to 1000 nM
[2H]C([2H])([2H])N(C(=O)c1nn(-c2ccsc2)c2c1COc1cc(OC)c(-c3ccn(C)n3)cc1-2)C1CCOC1 (stereo not drawn) [Compound 140] | 1000 to 5000 nM
COc1cc2c(cc1-c1ccn(C)c1)-c1c(c(C(=O)N3CCCC3(C)CO)nn1-c1ccsc1)CO2 (stereo not drawn) [Compound 176, (2-Hydroxymethyl-2-methyl-pyrrolidin-1-yl)-[7-methoxy-8-(1-methyl-1H-pyrrol-3-yl)-1-thiophen-3-yl-1,4-dihydro-chromeno[4,3-c]pyrazol-3-yl]-methanone] | < 100 nM
COc1cc2c(cc1C=C(C)C)-c1c(c(C(=O)NCCCNC(=O)C3CCC3)nn1-c1ccsc1)CO2 [Compound 57, 7-methoxy-8-(2-methyl-propenyl)-1-thiophen-3-yl-1,4-dihydro-chromeno[4,3-c]pyrazole-3-carboxylic Acid [3-(cyclobutanecarbonyl-amino)-propyl]-amide] | 1000 to 5000 nM
COc1cc2c(cc1OC(C)C)-c1c(c(C(=O)N(C)CCN(C)C(=O)C3CCC3)nn1-c1ccsc1)CO2 [Compound 29] | < 100 nM
[2H]C([2H])([2H])N(C(=O)c1nn(-c2ccsc2)c2c1COc1cc(OC)c(S(=O)(=O)C(C)C)cc1-2)C1(C)COC1 [Compound 199] | < 100 nM
COc1cc2c(cc1C1=CCCO1)-c1c(c(C(=O)N(C)C(C)(C)C)nn1-c1ccsc1)CO2 [Compound 74, 8-(4,5-Dihydro-furan-2-yl)-7-methoxy-1-thiophen-3-yl-1,4-dihydro-chromeno[4,3-c]pyrazole-3-carboxylic acid tert-butyl-methyl-amide] | < 100 nM
COc1cc2c(cc1-c1c(C)cnn1C)-c1c(c(C(=O)N(C)C(C)(C)C)nn1-c1ccsc1)CO2 [Compound 76, 8-(2,4-Dimethyl-2H-pyrazol-3-yl)-7-methoxy-1-thiophen-3-yl-1,4-dihydro-chromeno[4,3-c]pyrazole-3-carboxylic acid tert-butyl-methyl-amide] | < 100 nM
[2H]C([2H])([2H])NC(=O)[C@H]1CCC[C@@H](N(C(=O)c2nn(-c3ccsc3)c3c2COc2cc(OC)c(C=C(C)C)cc2-3)C([2H])([2H])[2H])C1 [Compound 107] | > 5000 nM
[2H]C([2H])([2H])N(CCNC(=O)c1nn(-c2ccsc2)c2c1COc1cc(OC)c(C=C(C)C)cc1-2)C(C)=O [Compound 60] | 100 to 1000 nM
CCn1nccc1-c1cc2c(cc1OC)OCc1c(C(=O)N3CCOCC3(C)C)nn(-c3ccsc3)c1-2 [Compound 213, (3,3-Dimethyl-morpholin-4-yl)-[8-(2-ethyl-2H-pyrazol-3-yl)-7-methoxy-1-thiophen-3-yl-1,4-dihydro-chromeno[4,3-c]pyrazol-3-yl]-methanone] | < 100 nM
COc1cc2c(cc1CN)-c1c(c(C(=O)N3CCOCC3(C)C)nn1-c1ccsc1)CO2 [Compound 166, (8-Aminomethyl-7-methoxy-1-thiophen-3-yl-1,4-dihydro-chromeno[4,3-c]pyrazol-3-yl)-(3,3-dimethyl-morpholin-4-yl)-methanone] | 1000 to 5000 nM
COc1cc2c(cc1-c1ccn(C)c1)-c1c(c(C(=O)N3CCN(C(C)=O)CC3)nn1-c1ccsc1)CO2 [Compound 155, 1-{4-[7-Methoxy-8-(1-methyl-1H-pyrrol-3-yl)-1-thiophen-3-yl-1,4-dihydro-chromeno[4,3-c]pyrazole-3-carbonyl]-piperazin-1-yl}-ethanone] | > 5000 nM
COc1cc2c(cc1-c1cncnc1)-c1c(c(C(=O)N(C)C(C)(C)C)nn1-c1ccsc1)CO2 [Compound 70, 7-Methoxy-8-pyrimidin-5-yl-1-thiophen-3-yl-1,4-dihydro-chromeno[4,3-c]pyrazole-3-carboxylic acid tert-butyl-methyl-amide] | < 100 nM
COc1cc2c(cc1-c1ccnn1C)-c1c(c(C(=O)N(C)C(C)(C)C)nn1-c1ccsc1)CO2 [Compound 64, 7-Methoxy-8-(2-methyl-2H-pyrazol-3-yl)-1-thiophen-3-yl-1,4-dihydro-chromeno[4,3-c]pyrazole-3-carboxylic acid tert-butyl-methyl-amide] | < 100 nM
COc1cc2c(cc1-c1ccn(C)c1)-c1c(c(C(=O)NC(C)(CO)CO)nn1-c1ccsc1)CO2 [Compound 179, 7-methoxy-8-(1-methyl-1H-pyrrol-3-yl)-1-thiophen-3-yl-1,4-dihydro-chromeno[4,3-c]pyrazole-3-carboxylic acid (2-hydroxy-1-hydroxymethyl-1-methyl-ethyl)-amide] | 100 to 1000 nM
[2H]C([2H])([2H])O[C@@H]1CC[C@H](N(C(=O)c2nn(-c3ccsc3)c3c2COc2cc(OC)c(-c4ccn(C)c4)cc2-3)C([2H])([2H])[2H])C1 [Compound 178] | 1000 to 5000 nM
COc1cc2c(cc1-c1cnn(C)c1)-c1c(c(C(=O)N(C)C(C)(C)C)nn1-c1ccsc1)CO2 [Compound 66, 7-Methoxy-8-(1-methyl-1H-pyrazol-4-yl)-1-thiophen-3-yl-1,4-dihydro-chromeno[4,3-c]pyrazole-3-carboxylic acid tert-butyl-methyl-amide] | < 100 nM
COc1cc2c(cc1-c1c(C)noc1C)-c1c(c(C(=O)N(C)C(C)(C)C)nn1-c1ccsc1)CO2 [Compound 67, 8-(3,5-Dimethyl-isoxazol-4-yl)-7-methoxy-1-thiophen-3-yl-1,4-dihydro-chromeno[4,3-c]pyrazole-3-carboxylic acid tert-butyl-methyl-amide] | < 100 nM
COc1cc2c(cc1S(=O)(=O)C(C)C)-c1c(c(C(=O)NC3(CO)COC3)nn1-c1ccsc1)CO2 [Compound 187, 7-Methoxy-8-(propane-2-sulfonyl)-1-thiophen-3-yl-1,4-dihydro-chromeno[4,3-c]pyrazole-3-carboxylic Acid (3-hydroxymethyl-oxetan-3-yl)-amide] | > 5000 nM
[2H]C([2H])([2H])C(C(=O)c1nn(-c2ccsc2)c2c1COc1cc(OC)c(-c3ccn(C)n3)cc1-2)C1(C)CNC1 (stereo not drawn) [Compound 193] | > 5000 nM
